# Test results taken from PubChem BioAssay (NCI).
# Values joined by “and” are separate entries in the source; they are usually repeats but may differ in a detail not shown here. Equal values may be shown once.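 Compound exposure: 48 hours, 5 concentrations, 96-well plates. GI50 is the concentration that inhibits growth by half. At the TGI there is no net growth.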
# Tests used:
# Experiment in all cases: DTP human tumour cell line panel, 48 h
# PC-3 prostate = system: PC-3 prostate
# NCI-H23 lung = system: NCI-H23 lung
# A549 NSCLC = system: A549 NSCLC
# TK-10 renal = system: TK-10 renal
# NCI/ADR-RES ovarian = system: NCI/ADR-RES ovarian
# SK-MEL-5 melanoma = system: SK-MEL-5 melanoma
# SNB-19 CNS = system: SNB-19 CNS
# SR leukemia = system: SR leukemia
# OVCAR-4 ovarian = system: OVCAR-4 ovarian
# NCI-H226 lung = system: NCI-H226 lung
Structure (SMILES),GI50 (PC-3 prostate) [µM],TGI (PC-3 prostate),GI50 (NCI-H23 lung) [µM],TGI (NCI-H23 lung),GI50 (A549 NSCLC) [µM],TGI (A549 NSCLC),GI50 (TK-10 renal) [µM],TGI (TK-10 renal),GI50 (NCI/ADR-RES ovarian) [µM],TGI (NCI/ADR-RES ovarian),GI50 (SK-MEL-5 melanoma) [µM],TGI (SK-MEL-5 melanoma),GI50 (SNB-19 CNS) [µM],TGI (SNB-19 CNS),GI50 (SR leukemia),TGI (SR leukemia),GI50 (OVCAR-4 ovarian) [µM],TGI (OVCAR-4 ovarian),GI50 (NCI-H226 lung) [µM],TGI (NCI-H226 lung)
C=CCN(CC=C)Cc1c[nH]c2ccccc12,32.4,> 100 µM,14,52.8 µM,31.5,> 100 µM,6.93,38.7 µM,18.3,43.8 µM,6,23.8 µM,> 100,> 100 µM,30.3 µM,> 100 µM,> 100,> 100 µM,–,–
CC(=O)O[C@H]1C[C@@H]2[C@@]3(C)CC[C@H]4C[C@@]4(C)[C@@H]3CC[C@@]2(C)C2=CCC3=C(COC3=O)[C@]21C,18.4,46.1 µM,20.1,49.9 µM,20.8,44.4 µM,20.4,48.5 µM,16.9,36.3 µM,17.7,34.5 µM,24.3,69.7 µM,> 100 µM,> 100 µM,25,60.2 µM,16,32.6 µM
O=C1NC(=O)C2C3C=CC(C12)C1C2C(=O)NC(=O)C2C31 (stereo not given),525,250 µM and > 1000 µM,727,250 µM and > 1000 µM,172,250 µM and > 1000 µM,695,> 1000 µM,> 1000,> 1000 µM,389,224 µM and > 756 µM,327,238 µM and > 904 µM,68.9 µM and 108 µM,250 µM and > 871 µM,> 1000,250 µM and > 1000 µM,> 484,250 µM and > 762 µM
CCCCCCCCCCCCOC1C(C(COC2OC(C(O)CO)C3OC(C)(C)OC23)OC(=O)Nc2ccccc2)OC2OC(C)(C)OC21 (stereo not given),3.57,13.1 µM,7.39,19.6 µM,6.08,20.6 µM,4.72,9.91 µM,6.04,18.4 µM,8.55,25.6 µM,7.35,20.3 µM,< 0.0212 µM,–,5.85,17.8 µM,11.8,26.4 µM
O=[N+]([O-])c1ccc(/C=C(/c2ccc([N+](=O)[O-])o2)S(=O)(=O)c2ccccc2)cc1,–,> 100 µM,–,> 100 µM,–,> 100 µM,–,> 100 µM,–,> 100 µM,–,34.3 µM,–,> 100 µM,–,36.5 µM,–,> 100 µM,–,75 µM
CCOC(=O)C#Cc1c(C(=O)OCC)nnn1[C@@H]1O[C@H](COC)[C@@H](OC)[C@H]1OC,16.7,31.7 µM,12.3,26.3 µM,20.9,40.4 µM,1.86,3.45 µM,15.9,37.3 µM,14.3,27.4 µM,69.4,> 100 µM,1.64 µM,4.66 µM,2.02,4.43 µM,1.65,3.18 µM
N#C[Se]CCN1C(=O)c2ccccc2C1=O,1.74,8.27 µM,2.93,18.8 µM,2.55,8.93 µM,2.13,6.3 µM,1.87,7.42 µM,–,–,2.41,8.66 µM,3.21 µM,23.9 µM,4.17,23.9 µM,1.6,3.82 µM
N=C(N)SCc1ccc(Cl)c2ccccc12 (tested in a mixture with another compound),–,24.3 µM and 25.3 µM,–,29 µM and 29.2 µM,–,31.3 µM and 35.5 µM,–,20.9 µM and 19.7 µM,–,48.1 µM and 55.2 µM,–,25.6 µM and 21.6 µM,–,28.4 µM and 31.6 µM,–,22.8 µM and 8.03 µM,–,15.9 µM and 24.9 µM,–,30.3 µM and 28.6 µM
COc1cc2c3c(n(CCCN)c(=O)c2cc1OC)-c1ccc(N)cc1C3=O,1.19,22.1 µM,1.62,9.75 µM,12.9,44.3 µM,17.9,80.6 µM,> 100,> 100 µM,0.902,2.88 µM,1.27,16.3 µM,0.152 µM,1.45 µM,1.57,11.6 µM,2.85,14.5 µM
COc1cc(/C=C/c2cc(/C=C/c3ccc(O)c(OC)c3)n(C(=O)Nc3ccc(C)cc3)n2)ccc1O,0.404,2.53 µM,0.586,3.99 µM,0.419,4.6 µM,0.874,5.81 µM,0.429,> 100 µM,0.306,1.21 µM,0.873,9.11 µM,0.0268 µM,0.15 µM,0.697,5.95 µM,1.19,4.82 µM
CN1CCN(C(=O)/C=C/c2ccc([N+](=O)[O-])o2)CC1,21.6,> 100 µM,8.49,22 µM,18.8,41.5 µM,31.7,> 100 µM,14.9,52.5 µM,7.52,20.4 µM,38.1,> 100 µM,4.23 µM,75.1 µM,14.2,27.9 µM,22.4,60 µM
